{"source": "patent US20140073700A1", "about": "“[…] ACID DERIVATIVES AND METHODS OF USE THEREOF” (AbbVie Inc., priority 2012, published 2014)", "note": "pIC50: −log10 of the molar value.", "data": [{"tested_on": "IFNγ-Induced NO Production in RAW 264.7 cells", "test": "Nitric Oxide Suppression Assay (suppression of IFNγ-induced NO production)", "assay_type": "cell-based", "settings": "RAW264.7; RAW 264.7 mouse macrophage cells, 20 ng/mL interferon gamma, Griess detection; single curve fit to mean data of n=2-3", "description": "RAW 264.7, a mouse macrophage cell line, was obtained from American Type Culture Collection (Manassas Va.) and maintained in the log phase of growth in Dulbecco's Modified Eagle's Medium (DMEM), 10% heat inactivated fetal calf serum and 100 units/mL antibiotic-antimycotic (AA). Cells were cultured and maintained in a humidified incubator at 37° C. under 5% CO2 and 95% air. Cells were sub-cultured every 3 days by scraping and were not used beyond passage 20. All cell culture supplies were obtained from Life Technologies (Grand Island, N.Y.).\nRAW 264.7 cells were plated 1 day in advance of experiment at a concentration of 80,000 cells/well onto CellBIND® 96 well plates (Corning, N.Y.) in a total volume of 100 μL. The next day, pre-treat cells with compounds (from 3 μM to 0.3 nM serially diluted in a 10 point curve) from a 10× stock by adding 10 μL per well in complete DMEM media containing 10% fetal calf serum. The plates were centrifuged for 3 minutes at 400×g at room temperature followed by 2 hour incubation at 37° C. The cells were then incubated overnight at 37° C. with 10 μL of the insult, interferon gamma (R&D Systems, Minneapolis, Minn.), from a 10× stock for a final concentration of 20 ng/mL. The plates were centrifuged for 3 minutes at 400×g at room temperature followed by 18 hour incubation at 37° C. The following day, transfer 50 μL cell culture supernatant from each well into a clear bottom 96 well plate and follow the instructions from Promega's Griess Detection Kit #G2930 (Madison, Wis.) which involves the addition of 50 μL of the provided sulfanilamide solution for a 5-10 minute incubation at room temperature. Next add 50 μL of the provided N-1-napthylethylenediamine dihydrochloride (NED) solution for a 5-10 minute incubation at room temperature and protected from light. If any air bubbles were introduced into the well, the plates need to be centrifuged for 5 minutes at 400×g at room temperature to avoid interference with absorbance readings. The plates were read for absorbance within 30 minutes with a filter between 520 nm and 550 nm.\nFor the ability of compounds to suppress the increase in nitric oxide release, the percent maximal intensity of nitric oxide detected in each well was normalized to that induced by the peak value for 20 ng/mL of interferon gamma alone and plotted against the compound concentration to calculate IC50 values and to control for plate-to-plate variability. Concentration-response data were analyzed using GraphPad Prism (San Diego, Calif.); the IC50 values were derived from a single curve fit to the mean data of n=2-3, in duplicates.\nAll compounds were dissolved in dimethyl sulfoxide at 10 mM stock solutions and tested at a concentration that the dimethyl sulfoxide levels never exceeded 1%.", "values": [{"molecule": "CCC(O)CNC(=O)[C@@]1(C)CC[C@]2(C)CC[C@@]3(C)[C@]4(C)CC[C@H]5C(C)(C)C(=O)C(C#N)=C[C@]5(C)C4=CC(=O)[C@]3(O)[C@@H]2C1", "note": "(stereo partly drawn) [Example 14, (2S,4aS,6aS,6bR,8aR,12aS,14aS,14bR)-11-cyano-14a-hydroxy-N-(2-hydroxybutyl)-2,4a,6a,6b,9,9,12a-heptamethyl-10,14-dioxo-1,2,3,4,4a,5,6,6a,6b,7,8,8a,9,10,12a,14,14a,14b-octadecahydropicene-2-carboxamide]", "pIC50": 7.27}, {"molecule": "CC1(C)C(=O)C(C#N)=C[C@]2(C)C3=CC(=O)[C@@H]4[C@@H]5C[C@@](C)(C(=O)NC6CCCCC6)CC[C@]5(C)CC[C@@]4(C)[C@]3(C)CC[C@@H]12", "note": "[Example 36, (2S,4aS,6aR,6bS,8aR,12aS,14aR,14bS)-11-cyano-N-cyclohexyl-2,4a,6a,6b,9,9,12a-heptamethyl-10,14-dioxo-1,2,3,4,4a,5,6,6a,6b,7,8,8a,9,10,12a,14,14a,14b-octadecahydropicene-2-carboxamide]", "pIC50": 6.85}, {"molecule": "CCCN(C)C(=O)[C@@]1(C)CC[C@]2(C)CC[C@@]3(C)[C@]4(C)CC[C@H]5C(C)(C)C(=O)C(C#N)=C[C@]5(C)C4=CC(=O)[C@]3(O)[C@@H]2C1", "note": "[Example 6, (2S,4aS,6aS,6bR,8aR,12aS,14aS,14bR)-11-cyano-14a-hydroxy-N,2,4a,6a,6b,9,9,12a-octamethyl-10,14-dioxo-N-propyl-1,2,3,4,4a,5,6,6a,6b,7,8,8a,9,10,12a,14,14a,14b-octadecahydropicene-2-carboxamide]", "pIC50": 7.45}, {"molecule": "C[C@H](NC(=O)[C@@]1(C)CC[C@]2(C)CC[C@@]3(C)[C@]4(C)CC[C@H]5C(C)(C)C(=O)C(C#N)=C[C@]5(C)C4=CC(=O)[C@]3(O)[C@@H]2C1)c1ccccc1", "note": "[Example 20, (2S,4aS,6aS,6bR,8aR,12aS,14aS,14bR)-11-cyano-14a-hydroxy-2,4a,6a,6b,9,9,12a-heptamethyl-10,14-dioxo-N-[(1S)-1-phenylethyl]-1,2,3,4,4a,5,6,6a,6b,7,8,8a,9,10,12a,14,14a,14b-octadecahydropicene-2-carboxamide]", "pIC50": 7.41}, {"molecule": "COC(=O)[C@@]1(C)CC[C@]2(C)CC[C@]3(C)[C@H](C(=O)C=C4[C@@]5(C)C=C(C#N)C(=O)C(C)(C)[C@@H]5CC[C@]43C)[C@@H]2C1", "note": "[Example 2, (2S,4aS,6aR,6bS,8aR,12aS,14aR,14bS)-methyl 11-cyano-2,4a,6a,6b,9,9,12a-heptamethyl-10,14-dioxo-1,2,3,4,4a,5,6,6a,6b,7,8,8a,9,10,12a,14,14a,14b-octadecahydropicene-2-carboxylate]", "pIC50": 6.70}, {"molecule": "COC(=O)[C@]12CCC(C)(C)C[C@H]1[C@H]1C(=O)C=C3[C@@]4(C)C=C(C#N)C(=O)C(C)(C)[C@@H]4CC[C@@]3(C)[C@]1(C)CC2", "note": "[bardoxolone methyl, reference compound]", "pIC50": 7.54}, {"molecule": "CC1(C)C(=O)C(C#N)=C[C@]2(C)C3=CC(=O)[C@]4(O)[C@@H]5C[C@@](C)(C(=O)N6CCCC6)CC[C@]5(C)CC[C@@]4(C)[C@]3(C)CC[C@@H]12", "note": "[Example 31, (4aR,6aR,6bS,8aS,11S,12aR,12bS,14bS)-12b-hydroxy-4,4,6a,6b,8a,11,14b-heptamethyl-3,13-dioxo-11-(pyrrolidin-1-ylcarbonyl)-3,4,4a,5,6,6a,6b,7,8,8a,9,10,11,12,12a,12b,13,14b-octadecahydropicene-2-carbonitrile]", "pIC50": 7.71}, {"molecule": "COC(=O)[C@@]1(C)CC[C@]2(C)CC[C@@]3(C)[C@]4(C)CC[C@H]5C(C)(C)C(=O)C(C#N)=C[C@]5(C)C4=CC(=O)[C@]3(O)[C@@H]2C1", "note": "[Example 1, (2S,4aS,6aS,6bR,8aR,12aS,14aS,14bR)-methyl 11-cyano-14a-hydroxy-2,4a,6a,6b,9,9,12a-heptamethyl-10,14-dioxo-1,2,3,4,4a,5,6,6a,6b,7,8,8a,9,10,12a,14,14a,14b-octadecahydropicene-2-carboxylate]", "pIC50": 7.79}, {"molecule": "CC1(C)C(=O)C(C#N)=C[C@]2(C)C3=CC(=O)[C@]4(O)[C@@H]5C[C@@](C)(C(=O)NCc6ccnnc6)CC[C@]5(C)CC[C@@]4(C)[C@]3(C)CC[C@@H]12", "note": "[Example 5, (2S,4aS,6aS,6bR,8aR,12aS,14aS,14bR)-11-cyano-14a-hydroxy-2,4a,6a,6b,9,9,12a-heptamethyl-10,14-dioxo-N-(pyridazin-4-ylmethyl)-1,2,3,4,4a,5,6,6a,6b,7,8,8a,9,10,12a,14,14a,14b-octadecahydropicene-2-carboxamide]", "pIC50": 7.30}, {"molecule": "CC1(C)C(=O)C(C#N)=C[C@]2(C)C3=CC(=O)[C@]4(O)[C@@H]5C[C@@](C)(C(=O)NCc6ccccc6)CC[C@]5(C)CC[C@@]4(C)[C@]3(C)CC[C@@H]12", "note": "[Example 22, (2S,4aS,6aS,6bR,8aR,12aS,14aS,14bR)—N-benzyl-11-cyano-14a-hydroxy-2,4a,6a,6b,9,9,12a-heptamethyl-10,14-dioxo-1,2,3,4,4a,5,6,6a,6b,7,8,8a,9,10,12a,14,14a,14b-octadecahydropicene-2-carboxamide]", "pIC50": 7.57}, {"molecule": "COCC(COC)NC(=O)[C@@]1(C)CC[C@]2(C)CC[C@@]3(C)[C@]4(C)CC[C@H]5C(C)(C)C(=O)C(C#N)=C[C@]5(C)C4=CC(=O)[C@]3(O)[C@@H]2C1", "note": "[Example 23, (2S,4aS,6aS,6bR,8aR,12aS,14aS,14bR)-11-cyano-N-(1,3-dimethoxypropan-2-yl)-14a-hydroxy-2,4a,6a,6b,9,9,12a-heptamethyl-10,14-dioxo-1,2,3,4,4a,5,6,6a,6b,7,8,8a,9,10,12a,14,14a,14b-octadecahydropicene-2-carboxamide]", "pIC50": 7.97}, {"molecule": "COc1ccccc1CNC(=O)[C@@]1(C)CC[C@]2(C)CC[C@@]3(C)[C@]4(C)CC[C@H]5C(C)(C)C(=O)C(C#N)=C[C@]5(C)C4=CC(=O)[C@]3(O)[C@@H]2C1", "note": "[Example 13, (2S,4aS,6aS,6bR,8aR,12aS,14aS,14bR)-11-cyano-14a-hydroxy-N-(2-methoxybenzyl)-2,4a,6a,6b,9,9,12a-heptamethyl-10,14-dioxo-1,2,3,4,4a,5,6,6a,6b,7,8,8a,9,10,12a,14,14a,14b-octadecahydropicene-2-carboxamide]", "pIC50": 7.22}, {"molecule": "CC1(C)C(=O)C(C#N)=C[C@]2(C)C3=CC(=O)[C@]4(O)[C@@H]5C[C@@](C)(C(=O)NCc6ccno6)CC[C@]5(C)CC[C@@]4(C)[C@]3(C)CC[C@@H]12", "note": "[Example 30, (2S,4aS,6aS,6bR,8aR,12aS,14aS,14bR)-11-cyano-14a-hydroxy-2,4a,6a,6b,9,9,12a-heptamethyl-N-(1,2-oxazol-5-ylmethyl)-10,14-dioxo-1,2,3,4,4a,5,6,6a,6b,7,8,8a,9,10,12a,14,14a,14b-octadecahydropicene-2-carboxamide]", "pIC50": 7.91}, {"molecule": "COC(=O)[C@@H]1CCCN1C(=O)[C@@]1(C)CC[C@]2(C)CC[C@@]3(C)[C@]4(C)CC[C@H]5C(C)(C)C(=O)C(C#N)=C[C@]5(C)C4=CC(=O)[C@]3(O)[C@@H]2C1", "note": "[Example 24, methyl 1-{[(2S,4aS,6aS,6bR,8aR,12aS,14aS,14bR)-11-cyano-14a-hydroxy-2,4a,6a,6b,9,9,12a-heptamethyl-10,14-dioxo-1,2,3,4,4a,5,6,6a,6b,7,8,8a,9,10,12a,14,14a,14b-octadecahydropicen-2-yl]carbonyl}prolinate]", "pIC50": 7.78}, {"molecule": "CC(C)(C)CNC(=O)[C@@]1(C)CC[C@]2(C)CC[C@@]3(C)[C@]4(C)CC[C@H]5C(C)(C)C(=O)C(C#N)=C[C@]5(C)C4=CC(=O)[C@]3(O)[C@@H]2C1", "note": "[Example 7, (2S,4aS,6aS,6bR,8aR,12aS,14aS,14bR)-11-cyano-N-(2,2-dimethylpropyl)-14a-hydroxy-2,4a,6a,6b,9,9,12a-heptamethyl-10,14-dioxo-1,2,3,4,4a,5,6,6a,6b,7,8,8a,9,10,12a,14,14a,14b-octadecahydropicene-2-carboxamide]", "pIC50": 7.65}, {"molecule": "CC1(C)C(=O)C(C#N)=C[C@]2(C)C3=CC(=O)[C@@H]4[C@@H]5C[C@@](C)(C(=O)NCc6ccco6)CC[C@]5(C)CC[C@@]4(C)[C@]3(C)CC[C@@H]12", "note": "[Example 35, (2S,4aS,6aR,6bS,8aR,12aS,14aR,14bS)-11-cyano-N-(2-furylmethyl)-2,4a,6a,6b,9,9,12a-heptamethyl-10,14-dioxo-1,2,3,4,4a,5,6,6a,6b,7,8,8a,9,10,12a,14,14a,14b-octadecahydropicene-2-carboxamide]", "pIC50": 7.86}]}]}
